Entries after “also recorded” stand apart in the source; their conditions may differ.
What was measured:
P-PRAS40 = experiment: Western blotting of P-PRAS40 in SW620 cells; conditions: 1 μM; for P-PRAS40 inhibition (western blot verification for proteomics, in words): 18 h, Figure S4
AKT [1] = experiment: Western blotting of T-AKT in SW620 cells; format: cell-based; conditions: for T-AKT level (western blot verification for proteomics, in words): 18 h, Figure S4; for effect on AKT protein levels at high concentrations (in words): concentrations up to 10 μM
AKT [2] = experiment: Western blotting of T-AKT in Mia PaCa-2 cells; format: cell-based; conditions: Mia PaCa-2 cells (KRAS mutant), Figure S2A
AKT1 [3] = molecular target: T1, AKT1 (Homo sapiens, UniProt P31749); experiment: Western blotting of AKT isoforms in SW620 cells; format: cell-based; conditions: Figure S3
AKT2 [4] = molecular target: T2, AKT2 (Homo sapiens, UniProt P31751); experiment: Western blotting of AKT isoforms in SW620 cells; format: cell-based; conditions: Figure S3
AKT [5] = experiment: Western blotting of T-AKT in Colo205 cells; format: cell-based; conditions: Colo205 cells (BRAF mutant), 1 μM, 24 h
AKT [6] = experiment: Western blotting of T-AKT in HT-29 cells; format: cell-based; conditions: HT-29 cells (BRAF mutant), 1 μM, 24 h
AKT [7] = experiment: Western blotting of T-AKT in SKMEL 239 cells; format: cell-based; conditions: SKMEL 239 cells (BRAF mutant), 1 μM, 24 h
AKT [8] = experiment: Western blotting of T-AKT in PANC-1 cells; format: cell-based; conditions: 24 h
AKT1 [9] = molecular target: T1, AKT1; experiment: Global TMT MS-based quantitative proteomic study in SW620 cells; format: cell-based; conditions: 1 μM, 18 h, approximately 6433 proteins detected
AKT2 [10] = molecular target: T2, AKT2; experiment: as above; format: cell-based; conditions: 1 μM, 18 h, 62 compared to 63
SW620 cells [11] = experiment: Cell death monitoring with DRAQ7 in SW620 cells; format: cell-based; conditions: 5 μM, DRAQ7, 0-72 h
SW620 cells [12] = experiment: Colony formation assay in SW620 cells; format: cell-based; conditions: 2 weeks, crystal violet
[13] = Mouse pharmacokinetic study; format: in vivo, male Swiss Albino mice; conditions: mice, single IP dose 75 mg/kg
AKT1 [14] = molecular target: T1, AKT1; experiment: AKT activity inhibition assay; format: biochemical; conditions: 10 μM ATP
AKT2 [15] = molecular target: T2, AKT2; experiment: AKT activity inhibition assay; format: biochemical; conditions: 10 μM ATP
AKT3 = AKT3 (Homo sapiens, UniProt Q9Y243); experiment: AKT activity inhibition assay; format: biochemical; conditions: 10 μM ATP
SW620 cells [16] = experiment: Cell proliferation assay; format: cell-based; conditions: 5 days, IncuCyte
[17] = PANC-1 cells (KRAS mutant), 1 μM

T2 sequence (P31751 whole entry, canonical isoform): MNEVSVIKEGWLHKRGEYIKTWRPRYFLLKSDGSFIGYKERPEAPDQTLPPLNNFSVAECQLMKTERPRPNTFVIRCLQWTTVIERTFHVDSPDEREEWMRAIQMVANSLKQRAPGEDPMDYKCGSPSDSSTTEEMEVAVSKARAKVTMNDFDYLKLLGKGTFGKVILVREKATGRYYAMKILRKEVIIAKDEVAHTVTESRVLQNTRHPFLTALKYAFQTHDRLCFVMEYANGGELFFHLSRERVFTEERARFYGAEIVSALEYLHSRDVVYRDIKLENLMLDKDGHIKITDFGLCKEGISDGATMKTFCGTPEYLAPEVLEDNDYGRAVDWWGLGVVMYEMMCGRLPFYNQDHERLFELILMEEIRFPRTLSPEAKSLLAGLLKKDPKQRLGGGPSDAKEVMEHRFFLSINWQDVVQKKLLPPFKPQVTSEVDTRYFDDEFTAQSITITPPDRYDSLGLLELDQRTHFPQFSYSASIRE
T1 sequence (P31749 whole entry, canonical isoform): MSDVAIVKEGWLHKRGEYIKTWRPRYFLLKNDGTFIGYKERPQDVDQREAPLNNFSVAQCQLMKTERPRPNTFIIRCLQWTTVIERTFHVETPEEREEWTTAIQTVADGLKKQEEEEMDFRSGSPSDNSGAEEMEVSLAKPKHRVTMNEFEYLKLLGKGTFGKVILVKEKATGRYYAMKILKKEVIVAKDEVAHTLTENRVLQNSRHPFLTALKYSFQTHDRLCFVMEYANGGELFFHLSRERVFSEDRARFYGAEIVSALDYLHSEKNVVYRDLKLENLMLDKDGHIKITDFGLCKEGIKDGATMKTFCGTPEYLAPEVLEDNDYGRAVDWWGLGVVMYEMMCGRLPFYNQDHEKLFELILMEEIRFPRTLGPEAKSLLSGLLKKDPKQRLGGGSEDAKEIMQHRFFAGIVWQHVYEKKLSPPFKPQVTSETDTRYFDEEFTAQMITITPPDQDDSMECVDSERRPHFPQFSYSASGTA
Chain of AKT3 (Q9Y243 whole entry): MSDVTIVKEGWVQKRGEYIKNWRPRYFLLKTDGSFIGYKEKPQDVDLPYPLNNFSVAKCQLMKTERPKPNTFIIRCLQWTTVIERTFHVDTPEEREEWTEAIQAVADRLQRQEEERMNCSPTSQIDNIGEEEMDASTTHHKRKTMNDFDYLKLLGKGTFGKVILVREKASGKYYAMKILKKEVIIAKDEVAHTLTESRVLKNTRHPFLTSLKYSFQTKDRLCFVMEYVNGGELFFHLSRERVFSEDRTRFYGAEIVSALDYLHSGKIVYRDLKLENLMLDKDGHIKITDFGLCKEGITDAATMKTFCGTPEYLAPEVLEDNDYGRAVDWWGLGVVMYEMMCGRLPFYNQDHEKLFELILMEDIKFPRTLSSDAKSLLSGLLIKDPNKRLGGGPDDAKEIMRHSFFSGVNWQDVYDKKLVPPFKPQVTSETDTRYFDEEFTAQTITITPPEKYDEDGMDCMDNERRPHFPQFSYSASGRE

Nc1ncccc1-c1nc2ccc(-c3ccccc3)nc2n1-c1ccc(C2(N)CCC2)cc1 [ARQ-092, 3-(3-(4-(1-Aminocyclobutyl)phenyl)-5-phenyl-3H-imidazo[4,5-b]pyridin-2-yl)pyridin −2-amine, reference compound]
phosphorylation of PRAS40 in time-course study (in words) (P-PRAS40; up to 24 h): potently inhibited

Cc1ncsc1-c1ccc([C@H](C)NC(=O)[C@@H]2C[C@@H](O)CN2C(=O)[C@@H](NC(=O)CCCCCCCCCCNC(=O)CCc2cccc(-c3ccc4nc(-c5cccnc5N)n(-c5ccc(C6(N)CCC6)cc5)c4n3)c2)C(C)(C)C)cc1 [Compound 62, (2S,4R)-1-((S)-2-(11-(3-(3-(3-(4-(1-Aminocyclobutyl)phenyl)-2-(2-aminopyridin-3-yl)-3H-imidazo[4,5-b]pyridin-5-yl)phenyl)propanamido)undecanamido)-3,3-dimethylbutanoyl)-4-hydroxy-N-((S)-1-(4-(4-methylthiazol-5-yl)phenyl)ethyl)pyrrolidine-2-carboxamide]
T-AKT degradation (western blot, in words) (AKT [1]; SW620 cells (KRAS mutant), Figure S2): effectively and completely depleted T-AKT; also recorded: much more effective than MS21 | T-AKT degradation (in words) (AKT [1]; SW620 cells, 30 nM, 24 h): substantial T-AKT depletion | T-AKT degradation (in words) (AKT [1]; SW620 cells, 100 nM, 24 h): nearly complete AKT degradation | T-AKT level (western blot verification for proteomics, in words) (AKT [1]; SW620 cells, 1 μM): significantly reduced | T-AKT degradation in time-course study (in words) (AKT [1]; SW620 cells, 1 μM, at 4 h): Significant AKT degradation | T-AKT degradation in time-course study (in words) (AKT [1]; SW620 cells, 1 μM, at 12 h, maintained for at least another 12 h): Near complete AKT degradation | T-AKT protein level in time-course study (in words) (AKT [1]; SW620 cells, 1 μM, up to 24 h): time-dependently reduced T-AKT protein levels | effect on AKT protein levels at high concentrations (in words) (AKT [1]; SW620 cells, 24 h): no “hooker effect” was observed | DC50 (AKT [1]; read-out: DC50, T-AKT degradation, SW620 cells, 24 h, western blot): 0.023 ± 0.016 µM | T-AKT degradation (western blot, in words) (AKT [2]): modestly induced AKT degradation | AKT1 degradation (western blot, in words) (AKT1 [3]): potently induced | AKT2 degradation (western blot, in words) (AKT2 [4]): potently induced | T-AKT degradation (in words) (AKT [5]): more effective than MS21 | T-AKT degradation (in words) (AKT [6]): more effective than MS21 | T-AKT degradation (in words) (AKT [7]): more effective than MS21 | T-AKT degradation (in words) (AKT [8]; [17]): near-complete AKT degradation | T-AKT degradation (in words) (AKT [8]; PANC-1 cells, 100 nM): complete degradation | T-AKT degradation at high concentrations (in words) (AKT [8]; PANC-1 cells, concentrations up to 10 μM): no “hooker effect” was observed | AKT1 protein level in TMT proteomics (in words) (AKT1 [9]): reduced significantly | proteome-wide degradation selectivity (in words) (AKT1 [9]): generally selective AKT degrader | AKT2 protein level in TMT proteomics (in words) (AKT2 [10]): also reduced | induction of cell apoptosis / percent cell death (in words) (SW620 cells [11]): most effectively | inhibition of colony formation (in words) (SW620 cells [12]): significantly inhibited colony formation | clinical signs during the PK study [13]: No clinical signs were observed | plasma concentrations ([13]; maintained for at least 12 h): above 100 nM | P-PRAS40 inhibition (western blot verification for proteomics, in words) (P-PRAS40): inhibited

Cc1ncsc1-c1ccc([C@H](C)NC(=O)[C@H]2C[C@H](O)CN2C(=O)[C@@H](NC(=O)CCCCCCCCCCNC(=O)CCc2cccc(-c3ccc4nc(-c5cccnc5N)n(-c5ccc(C6(N)CCC6)cc5)c4n3)c2)C(C)(C)C)cc1 [Compound 63, (2R,4S)-1-((S)-2-(11-(3-(3-(3-(4-(1-Aminocyclobutyl)phenyl)-2-(2-aminopyridin-3-yl)-3H-imidazo[4,5-b]pyridin-5-yl)phenyl)propanamido)undecanamido)-3,3-dimethylbutanoyl)-4-hydroxy-N-((S)-1-(4-(4-methylthiazol-5-yl)phenyl)ethyl)pyrrolidine-2-carboxamide]
T-AKT level (western blot verification for proteomics, in words) (AKT [1]; SW620 cells, 1 μM): no effect | effect on AKT protein levels at high concentrations (in words) (AKT [1]; SW620 cells, 24 h): no effect | P-PRAS40 inhibition (western blot verification for proteomics, in words) (P-PRAS40): no effect

Cc1ncsc1-c1ccc([C@H](C)NC(=O)[C@H]2C[C@H](OCc3ccccc3)CN2C(=O)[C@@H](NC(=O)CCCCCCCCCCNC(=O)CCc2cccc(-c3ccc4nc(-c5cccnc5N)n(-c5ccc(C6(N)CCC6)cc5)c4n3)c2)C(C)(C)C)cc1 [Compound 64, (2R,4S)-1-((S)-2-(11-(3-(3-(3-(4-(1-Aminocyclobutyl)phenyl)-2-(2-aminopyridin-3-yl)-3H-imidazo[4,5-b]pyridin-5-yl)phenyl)propanamido)undecanamido)-3,3-dimethylbutanoyl)-4-(benzyloxy)-N-((S)-1-(4-(4-methylthiazol-5-yl)phenyl)ethyl)pyrrolidine-2-carboxamide]
decrease of AKT1 inhibition potency compared to 62 (AKT1 [14]): 1.5 fold | decrease of AKT2 inhibition potency compared to 62 (AKT2 [15]): 6 fold | decrease of AKT3 inhibition potency compared to 62 (AKT3): 3.6 fold | effect on AKT protein levels at high concentrations (in words) (AKT [1]; SW620 cells, 24 h): no effect | cell growth inhibition (in words) (SW620 cells [16]): inactive

Cc1ncsc1-c1ccc(CNC(=O)[C@@H]2C[C@@H](O)CN2C(=O)[C@@H](NC(=O)CCCCCCCCCC(=O)N2CCN(CC[C@H](NC(=O)C3(N)CCN(c4ncnc5[nH]ccc45)CC3)c3ccc(Cl)cc3)CC2)C(C)(C)C)cc1 [MS21, reference compound]
T-AKT degradation (in words) (AKT [1]; SW620 cells, indicated concentrations, 24 h, Figure 7E): largely ineffective | T-AKT degradation (in words) (AKT [8]; [17]): unable to reduce the AKT protein level | inhibition of colony formation (in words) (SW620 cells [12]): no effect

— publication PMC9613624 (Journal of medicinal chemistry, 2022)
